Where a name gives a salt, the structure may show the parent alone.
Key:
[1] = tested on: murine leukemia cell lines; test: Leukemia cell growth inhibition evaluation, summary in words; assay type: cell-based; settings: Table 6
From the text: (§1) HL60, THP-1, K562, U937, KGla, HEL, and MDS-L were used as human leukemia cells. The cell lines are cell lines established from various subtypes such as acute myeloid leukemia, acute promyelocytic leukemia, acute monocytic leukemia, acute erythroid leukemia, and myelodysplastic syndromes, which progress to leukemia. Cells obtained by introducing leukemia fusion genes MLL/AF9, MLL/SEPT6, and MLL/ENL into the bone marrow of normal mice with a retrovirus so as to develop leukemia were used as murine leukemia cell lines.
(§2) This assay method involves, as a principle thereof, measuring an absorbance (a peak at from 450 nm to 490 nm) at the time of color development through a reaction of NADH, which is contained in the mitochondria of viable cells, and WST-8 to measure the amount of NADH. Specifically, the assay was performed by the following procedure.
(§3) The cells were plated at 50 μl, i.e., 5,000 cells per well in a 96-well microtiter plate. Next, a test compound dissolved in DMSO was mixed at various concentrations into the same medium, and 50 μl of each of the mixtures was added to each well. A medium was prepared so that the final concentration of the test compound was from 0 μM to 50 μM and so that the addition amount of DMSO was the same, and the cells were cultured in a CO2 incubator. On day 0 before the addition and on day 1, day 2, and day 3 after the addition, WST-8 reagent was added at 20 μl per well, and the cells were cultured for 1 hour in a CO2 incubator. After that, measurement was performed with ARVO X3 (manufactured by PerkinElmer).
(§4) Specifically, an absorbance at 450 nm was measured, an absorbance at 595 nm was measured in the same well, and the absorbance at 595 nm was subtracted from the absorbance at 450 nm to perform background correction for the well itself. Further, a well containing only a medium free of cells was subjected to the same measurement. A value in this case was also subtracted. Thus, the amount of viable cells was represented as a numerical value with correction of the influence of a medicament or a medium as well. Under a condition not containing the test compound (addition of only dimethyl sulfoxide), an exponential increase in number of viable cells on day 1, day 2, and day 3 in the stated order was confirmed.

[2] = tested on: human leukemia cell lines; test: as above; assay type: cell-based; settings: Table 5
From the text: as §1, §2, §3, §4

[3] = target: T1, monoamine oxidase B (MAO-B) (Homo sapiens, UniProt P27338); test: Monoamine oxidase inhibition test (MAO-Glo assay kit); assay type: biochemical; settings: room temperature, 1 hour
T1 construct: purchased Sigma-Aldrich
T1 sequence (P27338 1-520): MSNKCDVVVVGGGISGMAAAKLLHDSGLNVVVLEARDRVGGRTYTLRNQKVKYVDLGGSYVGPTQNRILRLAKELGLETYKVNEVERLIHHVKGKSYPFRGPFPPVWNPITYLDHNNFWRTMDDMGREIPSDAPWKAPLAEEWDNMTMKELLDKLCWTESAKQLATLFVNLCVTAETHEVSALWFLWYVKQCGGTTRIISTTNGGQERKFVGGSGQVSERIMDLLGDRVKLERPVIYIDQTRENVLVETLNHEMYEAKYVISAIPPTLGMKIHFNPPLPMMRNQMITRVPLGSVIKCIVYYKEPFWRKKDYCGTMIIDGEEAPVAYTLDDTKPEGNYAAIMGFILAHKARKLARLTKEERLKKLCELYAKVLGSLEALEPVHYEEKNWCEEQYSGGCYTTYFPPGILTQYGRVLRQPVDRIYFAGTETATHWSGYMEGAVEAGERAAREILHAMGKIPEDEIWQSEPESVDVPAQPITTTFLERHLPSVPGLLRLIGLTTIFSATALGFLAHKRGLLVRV
Procedure: To the reaction liquid was added 50 μL of a luciferin detection reagent, and the mixture was subjected to a reaction at room temperature for 20 minutes.

[4] = tested on: bone marrow cells of normal mice; test: Normal cell growth inhibition evaluation (colony forming ability in methylcellulose semi-solid medium); assay type: cell-based; settings: 10 days culture, FIG. 1
From the text: In general, a semi-solid medium obtained by adding a cytokine involved in differentiation induction to a methylcellulose medium is used to evaluate a colony forming ability. Some of the bone marrow cells contain hematopoietic stem cells and precursor cells, which are sources of hematopoietic cells, and these cells can create a mass (called a colony) formed of several tens, several hundreds, and in some cases, several thousands of cells from a single cell on a semi-solid medium. The colony forming ability of the bone marrow cells may be evaluated by counting the number of the colonies. The colony forming ability in the semi-solid medium well reflects an actual supply ability and construction ability from the hematopoietic stem cells and precursor cells to the hematopoietic cells in vivo.
To 3 ml of MethoCult M3434 (methylcellulose-based semi-solid medium; StemCell Technologies; containing interleukin 3(IL-3), interleukin 6 (IL-6), erythropoietin (EPO), and stem cell factor (SCF)) were added 600,000 bone marrow cells of normal mice (suspended in 300 μl of IMDM medium), and the mixture was stirred well and plated at 1.1 ml per 3.5-cm culture dish. The cells were cultured under the conditions of 5% CO2 and 37° C. for 10 days in an incubator. A mass in which the number of cells was 50 or more was defined as a colony, and the number of colonies formed on each dish was counted.

[5] = tested on: M7; test: Leukemia cell growth inhibition evaluation (WST-8); assay type: cell-based; settings: Homo sapiens; day 3 (72-hour culture); read-out: Human leukemia cell line GI50 (μM) M7
From the text: as §1, §2, §3, §4

[6] = tested on: K562; test: Leukemia cell growth inhibition evaluation (WST-8); assay type: cell-based; settings: Homo sapiens, day 3 (72-hour culture), read-out: Human leukemia cell line GI50 (μM) K562
From the text: as §1, §2, §3, §4

[7] = at a concentration of up to 5 μM

Structure (SMILES)	growth inhibitory / suppressing effect on the murine leukemia cell lines (in words) [1]	growth inhibitory / suppressing effect on the human leukemia cell lines (in words) [2]	IC50 [3] [µM]	colony forming ability ([4]; at 10 μM)	colony forming ability [4, 7]	GI50 [5] [µM]	GI50 [6] [µM]
O=C(N[C@@H](CCCCNC1CC1c1ccccc1)C(=O)NCc1ccccc1)c1ccc(-c2ccccc2)cc1 (stereo partly drawn) [Example 8, 2-[N-(4-Phenylbenzenecarbonyl)]amino-6-(trans-2-phenylcyclopropan-1-amino)-N-benzylhexanamide Hydrochloride]	very high growth suppressing effects	higher growth suppressing effects on the human leukemia cell lines than Comparative Example 2	> 100	remarkably inhibited	not inhibited	~6	3.2
O=C(N[C@@H](CCCCNC1CC1c1ccccc1)C(=O)NCc1cccc(C(F)(F)F)c1)c1ccc(-c2ccccc2)cc1 (stereo partly drawn) [Example 19, 2-[N-(4-Phenylbenzenecarbonyl)]amino-6-(trans-2-phenylcyclopropan-1-amino)-N-(3-trifluoromethylbenzyl)hexanamide Hydrochloride]	very high growth suppressing effects	higher growth suppressing effects on the human leukemia cell lines than Comparative Example 2	> 100	remarkably inhibited	not inhibited	–	–

Reference: patent US9388123B2, “LSD1-selective inhibitor having lysine structure” (KYOTO UNIVERSITY, priority 2012, dated 2016)
